Test results taken from PMC5430962, “Retro-inverso Urokinase Receptor Antagonists for the Treatment of Metastatic Sarcomas” (Scientific Reports, 2017).
[ ]: non-standard residue; d: D form. Aib = CC(C)(N)C(=O)O

Tests used:
FPR1 [1] = target: T1, FPR1 (Homo sapiens, UniProt P21462); experiment: Ligand binding assay: FITC-fMLF binding to RBL-2H3/ETFR cells; conditions: 100 nM unlabeled peptide 60 min at 4 °C, then 10 nM FITC-fMLF 60 min at 4 °C; fluorescence plate reader
T1 construct: expressed in transfected cells; host or cells: rat basophilic leukaemia RBL-2H3/ETFR cells (gift of F. Blasi)
T1 sequence (P21462 1-350): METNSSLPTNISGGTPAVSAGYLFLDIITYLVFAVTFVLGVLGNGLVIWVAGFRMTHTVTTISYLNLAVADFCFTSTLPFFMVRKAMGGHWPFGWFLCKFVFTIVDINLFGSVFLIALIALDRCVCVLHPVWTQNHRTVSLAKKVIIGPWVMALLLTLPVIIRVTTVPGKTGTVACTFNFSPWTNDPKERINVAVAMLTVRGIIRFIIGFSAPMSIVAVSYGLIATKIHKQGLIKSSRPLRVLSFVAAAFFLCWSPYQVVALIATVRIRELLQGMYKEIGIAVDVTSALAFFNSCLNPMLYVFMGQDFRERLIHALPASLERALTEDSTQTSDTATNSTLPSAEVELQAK
Protocol: RBL-2H3 cells, RBL-2H3/ETFR cells stably expressing FPR1 (1.5 × 10^6 cells/sample) were pre-incubated with diluents or the indicated unlabeled peptides for 60 min at 4 °C, extensively rinsed with phosphate buffer saline (PBS), exposed to 10 nM FITC-fMLF (Molecular Probes) in PBS for additional 60 min at 4 °C and again rinsed with PBS. Cell-associated fluorescence was quantitated with the fluorescence plate reader Victor 3 (Perkin Elmer) using 485 nm excitation and 535 nm emission filters. The experiments were performed three times in triplicate.

HT1080 cells = experiment: Cell proliferation, MTS assay; type: cell-based, human; conditions: 10 µM in growth medium, replaced every 24 hr
Protocol: Cell proliferation was assessed using the xCELLigence RTCA technology as described. Cells (2 × 10^3/well) were seeded in E-well plates in growth medium and left to growth for 85 hr in the presence or the absence of 10 µM RI-3. For MTS assay, cells seeded on plates in growth medium plus/minus 10 µM RI-3, were allowed to proliferate at 37 °C in 5% CO2 and the absorbance of adherent cells stained with tetrazolium/formazan was assessed with a microplate reader. In both cases, medium with or without RI-3 was replaced every 24 hr. Data are the means ± SD of three independent experiments, performed in triplicate.

FPR1 [2] = target: T1, FPR1; experiment: Agonist-dependent FPR1 internalization, fluorescence microscopy in RBL-2H3/ETFR cells; type: cell-based; conditions: 100 nM peptide 30 min at 37 °C, then 10 nM FITC-fMLF 30 min at 37 °C; confocal microscopy
Protocol: Cells grown on glass slides to semi-confluence were exposed to diluents or the indicated unlabeled peptides for 30 min at 37 °C, then to 10 nM FITC-fMLF in PBS for additional 30 min at 37 °C and extensively rinsed with PBS. To visualize the cytoskeleton, the cells were fixed with 2.5% formaldehyde, permeabilized with 0.1% Triton X-100 for 10 min at 4 °C, and incubated with 0.1 µg/mL rhodamine-conjugated phalloidin (Sigma-Aldrich) for 40 min. In all cases, coverslips were mounted using 20% (w/v) Mowiol, visualized with a Zeiss 510META-LSM microscope (Carl Zeiss), and z-series were collected at 0.20 µm intervals.

[3] = Stability in human serum, read out as retained inhibition of HT1080 matrigel invasion; type: in vitro ADME; conditions: pre-incubated at 10^−3 M in human serum 18 hr at 37 °C; tested at 10 nM on HT1080 matrigel invasion, Boyden chambers, 6 hr; three experiments in triplicate
Protocol: A major limitation of peptides for use as therapeutics is susceptibility to degradation by serum proteases. The stability of RI-3 in bovine and human serum was investigated by comparing inhibitory activities of RI-3 and RI-3 pre-incubated at 10^−3 M with serum for 18 hr at 37 °C on cell migration and invasion. HT1080 cells were allowed to migrate for 18 hr toward DMEM (CTRL), 10% FBS (None), 10% FBS plus 10 nM RI-3 or 10% FBS with 10 nM RI-3 pre-incubated in bovine serum. […] The stability of RI-3 in human serum was investigated in cell invasion experiments performed in Boyden chambers. […]
(a) HT1080 cells were allowed to migrate in real time for 18 hr toward DMEM (CTRL), or 10% FBS in the absence (None) or the presence of 10 nM RI-3 or 10 nM RI-3 pre-incubated at 10^−3 M in bovine serum for 18 hr at 37 °C. […] The basal value assessed in the absence of FBS (CTRL) was taken as 100% and all values were reported relative to that. Data are the means ± SD three independent experiments, performed in triplicate. *Indicates statistical significance calculated against None, with *P < 0.05, **P < 0.0001. (c) Cell proliferation of HT1080 cells assessed by MTS assay. […] At the indicated times, the absorbance of adherent cells was assessed with a microplate reader. […]

Ac-[dY][dR][Aib][dR]-NH2 (SMILES CC(=O)N[C@H](Cc1ccc(O)cc1)C(=O)N[C@H](CCCNC(=N)N)C(=O)NC(C)(C)C(=O)N[C@H](CCCNC(=N)N)C(N)=O) [RI-3]
effect on binding of FITC-fMLF to RBL-2H3/ETFR cells (FPR1 [1]): prevented binding of FITC-fMLF to RBL-2H3/ETFR cells to a similar extent as compared to fMLF as well as RERF | effect on number of metabolically active cells (MTS) (HT1080 cells): no difference was apparent | effect on agonist-dependent FPR1 internalization (FPR1 [2]): paucity of FPR1 internalization | inhibitory activity retained after pre-incubation with human serum [3]: 81%
